From patent US10959966B2, “Compositions and methods for modulating HEXM1 expression” (CASE WESTERN RESERVE UNIVERSITY, priority 2014, dated 2021)

How the values were obtained:
[1] = system: HEXIM1 expression in LNCaP prostate cancer cells; assay: HEXIM1 expression by western blot in LNCaP cells treated with HMBA analogs; format: cell-based; conditions: LNCaP cells, 24 h, western blot normalized to β-actin; for HEXIM1 expression induction at lower concentration: analogs at 100 μM; for HEXIM1 expression compared to the vehicle treatment (cutoff 2.5 fold): analogs at 500 μM
Method: (§1) FIGS. 2(A-B) illustrate Western blots and a graph showing the effect of HMBA analogs on HEXIM1 expression. LNCaP cells were treated with vehicle, HMBA (5 mM) and its analogs at 500 μM for 24 h. Level of HEXIM1 (upper panel) and β-actin (lower panel) was analyzed by Western blot of cell extracts with HEXIM1 antibody and β-actin antibody respectively. The bands of HEXIM1 were quantified using ImageJ (NIH) and normalized to β-actin. The results are the representative of three independent experiments.
as §1, with “3(A-B)” for “2(A-B)”, “lower concentration” for “the effect”, “identified” for “its”, “100” for “500”
FIGS. 4(A-B) illustrate Western blots and a graph showing dose-dependent study of compound 4a1 and HMBA on HEXIM1 expression. Level of HEXIM1 (upper panel) and β-actin (lower panel) was analyzed by Western blot of cell extracts with HEXIM1 antibody and β-actin antibody respectively.
HMBA analogs described herein can be synthesized based on the HMBA scaffold and then selected for their ability to induce HEXIM1 expression in an in vitro cell assay. For example, the synthesized HMBA analogs can be administered to cells, such as LNCaP prostate cancer cells, and the level of HEXIM1 in such cells can be measured using western blot analyses. The level of HEXIM1 expression of cells that are treated with a potential HMBA analog can be compared to control cells treated without the HMBA analog or with HMBA. Control cells (untreated or treated with HMBA) can be assigned a relative HEXIM1 expression value. Induction or promotion of HEXIM1 expression is achieved when the HEXIM1 expression relative to the control is increased at least about 1%, 5%, 10%, 15%, 20%, 30%, 50%, 75%, 100%, 200%, or more.
The synthesis of the symmetrical and unsymmetrical derivatives is described in Scheme 1 and 2, respectively. For the symmetrical analogs, moieties A and C were kept identical. Besides the acetyl group of HMBA, methanesulfonyl group, propionyl group or butyryl group were introduced. In addition, a bulky benzoyl group was introduced. The active proton in the amide moiety was replaced with methyl group to generate a series of analogs with lower solubility. For the moiety B, various linkers such as 1,3-propylene, […] 1,4-cyclohexylene, 1,4-phenylene-bis(methylene), 1,4-cyclohexylene-bis(methylene) were tested for optimization. For the unsymmetrical analogs, the A and B moieties were kept the same as HMBA while the C moiety was modified with aryl or alkyl amide. A total of 32 compounds were synthesized, and these compounds were examined for their potency to induce HEXIM1 in LNCaP prostate cancer cells. HMBA (5 mM) was used as a positive control.
(§2) Therefore, these three compounds were screened at lower concentrations.

LNCaP cells = assay: Cell morphology after treatment, to exclude compounds causing cell toxicity; conditions: 500 μM
Excerpt: Cell morphology was examined after the treatment to exclude compounds that caused cell toxicity.

[2] = Precipitation of compounds in cell culture; format: physicochemical; conditions: 500 μM
Method: as §2
Some compounds were further evaluated at a lower concentration of 100 μM (FIG. 3). […] The variation in potency could be due to the precipitation of the two compounds at 500 μM, which hampers cell penetration. […] Due to the unsymmetrical structural characteristic of 4a1, a dose-dependent study was performed and the results are presented in FIG. 4.

Structure (SMILES)	HEXIM1 expression induction at lower concentration [1]	HEXIM1 expression compared to the vehicle treatment (cutoff 2.5 fold) [1]	Cell morphology after the treatment (LNCaP cells)	Precipitation during the treatment [2]
CCC(=O)NCCCCCCNC(=O)CC [Compound 2a4]	reduced activity	–	–	–
CCCC(=O)NCCCCCCNC(=O)CCC [Compound 2a5]	reduced activity	–	–	–
CC(=O)NCC1CCC(CNC(C)=O)CC1 (stereo not shown) [Compound 2c1]	–	reached this cutoff	cell morphology slightly changed	–
CC(=O)NC1CCC(NC(C)=O)CC1 (stereo not shown) [Compound 2d1]	not able to induce HEXIM1 expression	–	–	–
CS(=O)(=O)NCCCNS(C)(=O)=O [Compound 2f2]	not able to induce HEXIM1 expression	–	–	–
CN(CCCCCCN(C)S(C)(=O)=O)S(C)(=O)=O [Compound 3a2]	significant activity	did not reach the cutoff	–	precipitation
CC(=O)N(C)Cc1ccc(CN(C)C(C)=O)cc1 [Compound 3b1]	3.8 fold	–	–	–
CN(Cc1ccc(CN(C)S(C)(=O)=O)cc1)S(C)(=O)=O [Compound 3b2]	2 fold	–	–	–
CN(CC1CCC(CN(C)S(C)(=O)=O)CC1)S(C)(=O)=O (stereo not shown) [Compound 3c2]	not able to induce HEXIM1 expression	–	–	–
CC(=O)N(C)C1CCC(N(C)C(C)=O)CC1 (stereo not shown) [Compound 3d1]	not able to induce HEXIM1 expression	–	–	–
CN(C1CCC(N(C)S(C)(=O)=O)CC1)S(C)(=O)=O (stereo not shown) [Compound 3d2]	significant activity	did not reach the cutoff	–	precipitation
CN(CCCN(C)S(C)(=O)=O)S(C)(=O)=O [Compound 3f2]	not able to induce HEXIM1 expression	did not reach the cutoff	–	precipitation
COc1ccc(C(=O)NCCCCCCNC(C)=O)cc1 [Compound 4a3]	–	reached this cutoff	–	–
CC(=O)NCCCCCCNC(=O)c1ccc(-c2ccccc2)cc1 [Compound 4a4]	not able to induce HEXIM1 expression	did not reach the cutoff	–	–
